How the values were obtained:
Type in all cases: in vivo, C57BL/6 female mice
T241-VEGF tumors = experiment: Antitumor animal model, subcutaneous T241-VEGF tumor: tumor volume and tumor weight; conditions: for final tumor volume compared with the control group / tumor weight compared with the control group: 0.1 ml/each, 14 days; for tumor weight compared with the control group: FIG. 1-B
Description: At present, conventional antitumor drugs are accompanied with toxic side effects while taking effect. In this experiment, we evaluated the antitumor effect of curcumin, and examined the toxicity of the drug by observing changes in animals' body weights after treatment. Given that the chemotherapy drug treatment and course of chemotherapy are closely related to the incident rates of antitumor associated syndrome and its severity, positive control in this experiment used the most advanced antitumor antibodies in the world as a control. […]-VEGF is a tumor model with rapid tumor growth and obvious symptom of tumor associated syndrome. We feed C57BL/6 female mice (SPF grade, 6-8 weeks old, manufactured by Shanghai Silaike Experimental Animal Co., Ltd.) for 2-3 days. The day before subcutaneous inoculation, body hair in back and neck was shaved with a shaving device for the preparation of subcutaneous inoculation of tumor cells. The tumor cells […]-VEGF were collected and washed twice with PBS. After resuspended with PBS and counted, the cells were diluted to 1×10^7 cells/ml with PBS and placed on ice ready for inoculation. Mice were anesthetized with 7% chloral hydrate, 0.1 ml/each, intraperitoneal injection. After the mice were completely anesthetized, the mice were subcutaneously inoculated with tumor cells […]-VEGF, 1×10^6/each, with 1 ml medical disposable syringes in the back and neck. Inoculated mice were randomly allocated (8 in each group), weighed, grouped and administered for treatment. In this experiment, curcumin (manufactured by Sigma, cat. no. […]) was dissolved to 1 mol/L with DMSO and diluted to 2.5 mM, 5 mM and 10 mM with 20% Tween-80 (mixed with PBS) before administration. Detailed information and administration plan is as follows: Control: 20% Tween-80, 0.1 ml/each; The low-dose of curcumin group (Curcumin-2.5 mM): 2.5 mM curcumin, 0.1 ml/each, continuous administration for 14 days; The medium-dose of curcumin group (Curcumin-5 mM): 5 mM curcumin, 0.1 ml/each, continuous administration for 14 days; The high-dose of curcumin group (Curcumin-10 mM): 10 mM Curcumin, 0.1 ml/each, continuous administration for 14 days; Positive control group (PC: anti-VEGF humanized monoclonal antibody, produced by Jiangsu […] Pharmaceutical Co., Ltd.): 2 mg/ml, 0.1 ml/each, twice a week, administration for 4 times. Mice were weighed up every other day. Measuring the tumor volume with vernier caliper every other day after tumor grew in the body. In order to further verify the antitumor effect of each dose of curcumin and its effect on liver and spleen, we handled and dissected the animals in each group the day after administration, got tumors, livers, spleens and kidneys, then weighed up all the tissues and stored them respectively.

[1] = Body weight changes of T241-VEGF tumor-bearing mice after treatment (toxicity); conditions: low, medium and high dose of curcumin (2.5, 5, 10 mM, 0.1 ml/each, 14 days); consistent with normally fed animals
Description: At present, conventional antitumor drugs are accompanied with toxic side effects while taking effect. In this experiment, we evaluated the antitumor effect of curcumin, and examined the toxicity of the drug by observing changes in animals' body weights after treatment. Given that the chemotherapy drug treatment and course of chemotherapy are closely related to the incident rates of antitumor associated syndrome and its severity, positive control in this experiment used the most advanced antitumor antibodies in the world as a control. T241-VEGF is a tumor model with rapid tumor growth and obvious symptom of tumor associated syndrome.
We feed C57BL/6 female mice (SPF grade, 6-8 weeks old, manufactured by Shanghai Silaike Experimental Animal Co., Ltd.) for 2-3 days. The day before subcutaneous inoculation, body hair in back and neck was shaved with a shaving device for the preparation of subcutaneous inoculation of tumor cells. The tumor cells T241-VEGF were collected and washed twice with PBS. After resuspended with PBS and counted, the cells were diluted to 1×10^7 cells/ml with PBS and placed on ice ready for inoculation. Mice were anesthetized with 7% chloral hydrate, 0.1 ml/each, intraperitoneal injection. […]

[2] = system: anemia symptoms induced by the T241-VEGF tumor animal model; experiment: Blood analysis of anemia symptoms (RBC, HGB, HCT, PLT) in T241-VEGF tumor-bearing mice
Description: (§1) We feed C57BL/6 female mice (SPF grade, 6-8 weeks old, manufactured by Shanghai Silaike Experimental Animal Co., Ltd.) for 2-3 days. The day before subcutaneous inoculation, body hair in back and neck was shaved with a shaving device for the preparation of subcutaneous inoculation of tumor cells. The tumor cells T241-VEGF were collected and washed twice with PBS. After resuspended with PBS and counted, the cells were diluted to 1×10^7 cells/ml with PBS and placed on ice ready for inoculation. Mice were anesthetized with 7% chloral hydrate, 0.1 ml/each, intraperitoneal injection. After the mice were completely anesthetized, the mice were subcutaneously inoculated with tumor cells T241-VEGF, 1×10^6/each, with 1 ml medical disposable syringes in the back and neck. Inoculated mice were randomly allocated (8 in each group), weighed, grouped and administered for treatment. In this experiment, curcumin (manufactured by Sigma, cat. no. C1386-10G) was dissolved to 1 mol/L with DMSO and diluted to 2.5 mM, 5 mM and 10 mM with 20% Tween-80 (mixed with PBS) before administration. Detailed information and administration plan is as follows: Control: 20% Tween-80, 0.1 ml/each; The low-dose of curcumin group (Curcumin-2.5 mM): 2.5 mM curcumin, 0.1 ml/each, continuous administration for 14 days; The medium-dose of curcumin group (Curcumin-5 mM): 5 mM curcumin, 0.1 ml/each, continuous administration for 14 days; The high-dose of curcumin group (Curcumin-10 mM): 10 mM Curcumin, 0.1 ml/each, continuous administration for 14 days; Positive control group (PC: anti-VEGF humanized monoclonal antibody, produced by Jiangsu Simcere Pharmaceutical Co., Ltd.): 2 mg/ml, 0.1 ml/each, twice a week, administration for 4 times. Mice were weighed up every other day. Measuring the tumor volume with vernier caliper every other day after tumor grew in the body.
Handled the animals in each group the day after administration, weighed up, then collected blood (stored in 1.5 ml of EP tubes with 20 ul of 0.5M EDTA) after enucleation of the eyeballs and performed blood analysis. Blood samples were taken to evaluate the effect of curcumin on tumor associated syndrome—red blood cell (RBC), hemoglobin (HGB), hematocrit (HCT) and platelet count (PLT) in mice.

[3] = system: liver enlargement and splenomegaly caused by T241-VEGF tumor; experiment: Liver and spleen coefficients of T241-VEGF tumor-bearing mice; conditions: vs tumor control group, p<0.05
Description: as §1, with “body. […]” for “body.”

[4] = curcumin low, medium and high dose, positive control 2 mg/ml

SMILES: COc1cc(/C=C/C(=O)CC(=O)/C=C/c2ccc(O)c(OC)c2)ccc1O [curcumin]
- final tumor volume compared with the control group (T241-VEGF tumors; 2.5 mM curcumin): inhibited to a certain extent
- tumor weight compared with the control group (T241-VEGF tumors; 5 mM curcumin): significantly different
- final tumor volume compared with the control group (T241-VEGF tumors; 5 mM curcumin, p<0.01 or p<0.001): significantly different
- tumor weight compared with the control group (T241-VEGF tumors; 10 mM curcumin): significantly different
- final tumor volume compared with the control group (T241-VEGF tumors; 10 mM curcumin, p<0.01 or p<0.001): significantly different
- growth of T241-VEGF tumors (T241-VEGF tumors; low, medium and high dose of curcumin (2.5, 5, 10 mM, 0.1 ml/each, 14 days), FIG. 1-A): can inhibit the growth
- body weight [1]: not reduced
- platelet (PLT) compared with normal mice ([2]; curcumin at a dose of 10 mM): no statistical differences
- anemia symptoms of tumor-bearing mice compared with control group ([2]; curcumin low, medium and high dose (2.5, 5, 10 mM), positive control 2 mg/ml, FIG. 3): improved remarkably
- hematocrit (HCT) compared with normal mice [2, 4]: no statistical differences
- hemoglobin (HGB) compared with normal mice [2, 4]: no statistical differences
- red blood cell (RBC) compared with normal mice [2, 4]: no statistical differences
- liver enlargement (liver coefficient) ([3]; 5 mM curcumin): significantly improve the liver enlargement
- liver enlargement (liver coefficient) ([3]; 10 mM curcumin): significantly improve the liver enlargement
- spleen enlargement (spleen coefficient) ([3]; 10 mM curcumin): significantly improve the spleen enlargement

Reference: US20180214391A1, “USE OF CURCUMIN AND PHARMACEUTICALLY ACCEPTABLE SALT THEREOF” (TARGETPHARMA LABORATORIES (JIANDSU) CO., LTD., priority 2015, published 2018)
